7 compounds from PubChem BioAssay (NCI) can be followed below.

Where “and” joins values, the source holds several entries; their conditions need not be identical. Identical values can stand only once.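 96-well plates; 48 h exposure; 5 concentrations. Endpoints by linear interpolation between flanking doses. Not reached: highest tested concentration assigned. Abbreviation: GI50, concentration required for 50% inhibition of growth. TGI denotes the concentration required for complete inhibition of growth.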 Where a SMILES comes first, the peptide text is derived from it. The star is where a group is joined. Trt = c1ccc(C(c2ccccc2)(c2ccccc2)*)cc1; Cbz = O=C(OCc1ccccc1)*

Test systems include UACC-62 melanoma; HL-60(TB) leukemia; NCI-H226 lung; SNB-75 CNS; MOLT-4 leukemia; UACC-257 melanoma; BT-549 breast; EKVX NSCLC; DU-145 prostate; NCI-H522 lung.
Assay in all cases: NCI-60 cell line screen, 48 h

In the case of `O=C(NOCCO)c1cc(CN2OCCCC2=O)c(F)c(F)c1Nc1ccc(I)cc1F`, the GI50 in the experiment on UACC-62 melanoma is less than 0.01 µM; with HL-60(TB) leukemia, < 0.01 µM and 0.00194 µM; in the experiment with NCI-H226 lung it was 1.89 µM and 9.97 µM; in the experiment with SNB-75 CNS it was 16.4 µM and > 3.83 µM; in the experiment on MOLT-4 leukemia, 38.2 µM and > 10 µM; with UACC-257 melanoma, < 0.01 µM and 0.00204 µM. Further, the GI50 in the experiment on BT-549 breast was 17.3 µM and > 10 µM; in the experiment on EKVX NSCLC, 0.0599 µM and 0.0806 µM; with DU-145 prostate, 12 µM and > 8.73 µM; in the experiment with NCI-H522 lung, 18.3 µM and > 7.9 µM. Further, the TGI in the experiment on HL-60(TB) leukemia was more than 57 µM; with NCI-H226 lung, more than 100 µM; in the experiment on SNB-75 CNS, more than 100 µM; in the experiment with MOLT-4 leukemia it was more than 100 µM; in the experiment on UACC-257 melanoma, 0.0393 µM and < 0.0128 µM; with BT-549 breast, more than 100 µM. The TGI is more than 74.5 µM with EKVX NSCLC, more than 100 µM with DU-145 prostate and more than 65.4 µM with NCI-H522 lung.
Turning to `CCCN1CCC=C(c2ccc(Nc3nc(Nc4ccccc4C(N)=O)c4cc[nH]c4n3)c(C)c2)C1`, the GI50 in the experiment on UACC-62 melanoma is 14.4 µM; with HL-60(TB) leukemia, 0.387 µM; in the experiment on NCI-H226 lung, more than 17.7 µM; with SNB-75 CNS, more than 25 µM; in the experiment on MOLT-4 leukemia it was 7.79 µM; in the experiment with UACC-257 melanoma, 2.65 µM. Further, the GI50 with BT-549 breast is 17.2 µM; in the experiment with EKVX NSCLC, more than 17.8 µM; with DU-145 prostate, 3.76 µM; in the experiment on NCI-H522 lung, 8.66 µM. Further, the TGI in the experiment with UACC-62 melanoma was more than 25 µM; with HL-60(TB) leukemia it was 6.84 µM; in the experiment on NCI-H226 lung it was more than 25 µM; with SNB-75 CNS, more than 25 µM; in the experiment with MOLT-4 leukemia, more than 21 µM; with UACC-257 melanoma it was more than 25 µM. Also, the TGI in the experiment with BT-549 breast, with EKVX NSCLC, with DU-145 prostate and in the experiment on NCI-H522 lung was more than 25 µM each time.
In the case of `COc1cc(-c2cc(=O)c3c(O)c(OC)c(OC)c(OC)c3o2)cc(OC)c1OC`, the TGI in the experiment with UACC-62 melanoma was more than 100 µM; with HL-60(TB) leukemia, more than 100 µM; in the experiment on NCI-H226 lung, more than 80.1 µM; in the experiment with SNB-75 CNS it was 6.2 µM; in the experiment with MOLT-4 leukemia, more than 100 µM; in the experiment on UACC-257 melanoma, more than 100 µM. For the same compound, the TGI in the experiment with BT-549 breast was more than 100 µM; with EKVX NSCLC, more than 100 µM; in the experiment on DU-145 prostate, more than 100 µM; in the experiment with NCI-H522 lung it was 98.6 µM.
Take `COC(=O)C(CSC(c1ccccc1)(c1ccccc1)c1ccccc1)NC(=O)C(CC(N)=O)NC(=O)OCc1ccccc1` (stereo not drawn) (Cbz-Asn-Cys(Trt)-OMe; configuration not given here): the GI50 in the experiment on UACC-62 melanoma was 3.15 µM; with HL-60(TB) leukemia, 2.1 µM; in the experiment on NCI-H226 lung, 5.43 µM; in the experiment on SNB-75 CNS, 5.43 µM; in the experiment on MOLT-4 leukemia, 2.1 µM; in the experiment with UACC-257 melanoma, 8.92 µM. In addition, the GI50 in the experiment on BT-549 breast is 14.8 µM; in the experiment on EKVX NSCLC it was 4.15 µM; in the experiment on DU-145 prostate, 2.68 µM; in the experiment on NCI-H522 lung, 3.91 µM. Besides, the TGI worked out at 14.1 µM in the experiment with UACC-62 melanoma; 4.39 µM in the experiment with HL-60(TB) leukemia; 22 µM with NCI-H226 lung; 24.6 µM in the experiment with SNB-75 CNS; 5.2 µM in the experiment on MOLT-4 leukemia; 21.7 µM with UACC-257 melanoma. Besides, the TGI in the experiment on BT-549 breast was 35.7 µM; with EKVX NSCLC, 25.5 µM; with DU-145 prostate, 8.61 µM; in the experiment with NCI-H522 lung, 18.7 µM.
Turning to `Cc1c(Cl)c(C)c(Cc2c(C)c(Cl)c(C)c(Cl)c2O)c(O)c1Cl`, the GI50 was 1.81 µM in the experiment with UACC-62 melanoma; 2.92 µM in the experiment on HL-60(TB) leukemia; 2.52 µM with NCI-H226 lung; 2.27 µM in the experiment on SNB-75 CNS; 3.24 µM in the experiment with MOLT-4 leukemia; 3.52 µM with UACC-257 melanoma. Besides, the GI50 in the experiment on BT-549 breast is 2.37 µM; in the experiment with EKVX NSCLC, 2.64 µM; in the experiment on DU-145 prostate, 4.83 µM; in the experiment with NCI-H522 lung, 1.84 µM. The TGI turned out to be 6.84 µM in the experiment with UACC-62 melanoma; 11.2 µM in the experiment on HL-60(TB) leukemia; 10.7 µM with NCI-H226 lung; 7.93 µM in the experiment with SNB-75 CNS; 13.4 µM in the experiment with MOLT-4 leukemia; 14.9 µM with UACC-257 melanoma. In addition, the TGI in the experiment on BT-549 breast is 8.33 µM; in the experiment with EKVX NSCLC it was 9.25 µM; with DU-145 prostate, 16.6 µM; with NCI-H522 lung it was 11.2 µM.
As for `C=CC(C)(O)CC/C=C(\CO)C(=O)OC1C(C)OC(O[C@](C)(C=C)CC/C=C(\CO)C(=O)O[C@H]2C[C@@]3(C(=O)OC4OC(CO)C(O)C(O)C4OC4OC(C)C(OC5OC(CO)C(O)C5O)C(OC5OC(CO)C(O)C(O)C5O)C4O)C(CC2(C)C)C2=CCC4[C@@]5(C)CC[C@H](OC6OC(COC7OC(C)C(O)C(O)C7OC7OCC(O)C(O)C7O)C(O)C(O)C6NC(C)=O)C(C)(C)C5CC[C@@]4(C)[C@]2(C)C[C@H]3O)C(O)C1O` (some centres undefined), the GI50 is 0.687 µM in the experiment with UACC-62 melanoma; 0.13 µM with HL-60(TB) leukemia; 0.363 µM in the experiment on NCI-H226 lung; 0.154 µM in the experiment on SNB-75 CNS; 0.886 µM with MOLT-4 leukemia; 0.461 µM with UACC-257 melanoma. The GI50 is 5.04 µM with BT-549 breast, 0.901 µM with EKVX NSCLC, 0.131 µM in the experiment with DU-145 prostate and 0.341 µM in the experiment on NCI-H522 lung. Further, the TGI is 5.28 µM in the experiment on UACC-62 melanoma; 2.53 µM with HL-60(TB) leukemia; 1.98 µM with NCI-H226 lung; 0.894 µM in the experiment with SNB-75 CNS; 12.9 µM with MOLT-4 leukemia; 1.47 µM in the experiment on UACC-257 melanoma. In addition, the TGI with BT-549 breast worked out at 10.6 µM; in the experiment on EKVX NSCLC, 5.02 µM; with DU-145 prostate, 0.512 µM; in the experiment with NCI-H522 lung, 1.61 µM.
Consider `O=C(C=C=Nc1ccccc1)C(=O)N=C=Cc1ccccc1`, for which the GI50 in the experiment with UACC-62 melanoma is 4.26 µM; with HL-60(TB) leukemia, 1.7 µM; with NCI-H226 lung, 16.4 µM; with SNB-75 CNS it was 3.54 µM; with MOLT-4 leukemia, 1.14 µM; with UACC-257 melanoma, 2.38 µM. Moreover, the GI50 in the experiment with BT-549 breast is 2.59 µM; in the experiment on EKVX NSCLC, 6.81 µM; in the experiment on DU-145 prostate it was 2.24 µM; with NCI-H522 lung, 1.81 µM. The TGI was 12.6 µM in the experiment with UACC-62 melanoma; 6.98 µM with HL-60(TB) leukemia; 59.8 µM with NCI-H226 lung; 18.5 µM with SNB-75 CNS; 5.8 µM with MOLT-4 leukemia; 5.56 µM in the experiment with UACC-257 melanoma. Also, the TGI in the experiment on BT-549 breast is 9.2 µM; with EKVX NSCLC, 22.8 µM; in the experiment with DU-145 prostate, 6.82 µM; in the experiment on NCI-H522 lung it was 4.97 µM.
